Measurements published in ChEMBL document CHEMBL2040746, “Synthesis and evaluation of novel podophyllotoxin analogs” (Bioorg Med Chem Lett, 2012).
In brackets after ≈: the same amount, converted by molar mass.

Test system: A549
Experiment: Cytotoxicity against human A549 cells by SRB assay
Type: functional, cell-based

Structure (SMILES) | IC50
COC(=O)[C@H]1C(/C=C/C(=O)c2ccc([N+](=O)[O-])cc2)=Cc2cc(OC)c(OC)cc2[C@H]1c1cc(OC)c(OC)c(OC)c1 | 16.8 µg/mL (≈ 28.5 µM)
COc1cc2c(cc1OC)[C@@H](c1cc(OC)c(OC)c(OC)c1)[C@H](C(=O)N1CCCC1)C(/C=C/C(=O)c1ccc(C3CCCCC3)cc1)=C2 | 12 µg/mL (≈ 18 µM)
COc1cc2c(cc1OC)[C@@H](c1cc(OC)c(OC)c(OC)c1)[C@H](C(=O)N1CCCC1)C(/C=C/C(=O)c1ccc(-c3ccccc3)cc1)=C2 | 24.6 µg/mL (≈ 37.3 µM)
COc1cc([C@@H]2c3cc4c(cc3[C@@H](Nc3ccc([N+](=O)[O-])cc3)[C@H]3COC(=O)[C@H]23)OCO4)cc(OC)c1O | 0.113 µg/mL (≈ 0.217 µM)
COC(=O)[C@H]1C(/C=C/C(=O)c2ccc(O)cc2)=Cc2cc(OC)c(OC)cc2[C@H]1c1cc(OC)c(OC)c(OC)c1 | 6.79 µg/mL (≈ 12.1 µM)

Test system: DU-145
Experiment: Cytotoxicity against human DU145 cells by SRB assay
Type: functional, cell-based

Structure (SMILES) | IC50
COC(=O)[C@H]1C(/C=C/C(=O)c2ccc([N+](=O)[O-])cc2)=Cc2cc(OC)c(OC)cc2[C@H]1c1cc(OC)c(OC)c(OC)c1 | 20.3 µg/mL (≈ 34.4 µM)
COc1cc2c(cc1OC)[C@@H](c1cc(OC)c(OC)c(OC)c1)[C@H](C(=O)N1CCCC1)C(/C=C/C(=O)c1ccc(C3CCCCC3)cc1)=C2 | 12.8 µg/mL (≈ 19.2 µM)
COc1cc2c(cc1OC)[C@@H](c1cc(OC)c(OC)c(OC)c1)[C@H](C(=O)N1CCCC1)C(/C=C/C(=O)c1ccc(-c3ccccc3)cc1)=C2 | 15.5 µg/mL (≈ 23.4 µM)
COc1cc([C@@H]2c3cc4c(cc3[C@@H](Nc3ccc([N+](=O)[O-])cc3)[C@H]3COC(=O)[C@H]23)OCO4)cc(OC)c1O | 0.8 µg/mL (≈ 1.54 µM)
COC(=O)[C@H]1C(/C=C/C(=O)c2ccc(O)cc2)=Cc2cc(OC)c(OC)cc2[C@H]1c1cc(OC)c(OC)c(OC)c1 | 5.84 µg/mL (≈ 10.4 µM)

Test system: KB
Experiment: Cytotoxicity against human KB cells by SRB assay
Type: functional, cell-based

Structure (SMILES) | IC50
COC(=O)[C@H]1C(/C=C/C(=O)c2ccc([N+](=O)[O-])cc2)=Cc2cc(OC)c(OC)cc2[C@H]1c1cc(OC)c(OC)c(OC)c1 | 16 µg/mL (≈ 27.1 µM)
COc1cc2c(cc1OC)[C@@H](c1cc(OC)c(OC)c(OC)c1)[C@H](C(=O)N1CCCC1)C(/C=C/C(=O)c1ccc(C3CCCCC3)cc1)=C2 | 12.3 µg/mL (≈ 18.4 µM)
COc1cc2c(cc1OC)[C@@H](c1cc(OC)c(OC)c(OC)c1)[C@H](C(=O)N1CCCC1)C(/C=C/C(=O)c1ccc(-c3ccccc3)cc1)=C2 | 16.6 µg/mL (≈ 25.2 µM)
COc1cc([C@@H]2c3cc4c(cc3[C@@H](Nc3ccc([N+](=O)[O-])cc3)[C@H]3COC(=O)[C@H]23)OCO4)cc(OC)c1O | 0.819 µg/mL (≈ 1.57 µM)
COC(=O)[C@H]1C(/C=C/C(=O)c2ccc(O)cc2)=Cc2cc(OC)c(OC)cc2[C@H]1c1cc(OC)c(OC)c(OC)c1 | 5.9 µg/mL (≈ 10.5 µM)

Test system: not listed separately
Experiment: Cytotoxicity against human KBVIN cells by SRB assay
Type: functional, cell-based

Structure (SMILES) | IC50
COC(=O)[C@H]1C(/C=C/C(=O)c2ccc([N+](=O)[O-])cc2)=Cc2cc(OC)c(OC)cc2[C@H]1c1cc(OC)c(OC)c(OC)c1 | 23 µg/mL (≈ 39 µM)
COc1cc2c(cc1OC)[C@@H](c1cc(OC)c(OC)c(OC)c1)[C@H](C(=O)N1CCCC1)C(/C=C/C(=O)c1ccc(C3CCCCC3)cc1)=C2 | 12.3 µg/mL (≈ 18.5 µM)
COc1cc2c(cc1OC)[C@@H](c1cc(OC)c(OC)c(OC)c1)[C@H](C(=O)N1CCCC1)C(/C=C/C(=O)c1ccc(-c3ccccc3)cc1)=C2 | 16.9 µg/mL (≈ 25.6 µM)
COc1cc([C@@H]2c3cc4c(cc3[C@@H](Nc3ccc([N+](=O)[O-])cc3)[C@H]3COC(=O)[C@H]23)OCO4)cc(OC)c1O | 2.1 µg/mL (≈ 4.03 µM)
COC(=O)[C@H]1C(/C=C/C(=O)c2ccc(O)cc2)=Cc2cc(OC)c(OC)cc2[C@H]1c1cc(OC)c(OC)c(OC)c1 | 5.17 µg/mL (≈ 9.22 µM)
